≈ marks a conversion by molar mass, not a printed value.
How the values were obtained:
Escherichia coli [1] = assay: Bactericidal activity against Escherichia coli MTCC 739 assessed as microbial killing after 24 hrs; assay type: functional; details: MTCC 739, 24 h
Candida albicans [2] = assay: Antifungal activity against Candida albicans MTCC 3958 assessed as inhibition zone after 24 hrs at 30 degC by well diffusion method; assay type: functional; details: MTCC 3958, 24 h
[3] = Cytotoxicity against human DU145 cells assessed as reduction in cell viability by MTT assay; assay type: functional, cell-based; details: DU-145
Candida albicans [4] = assay: Antifungal activity against Candida albicans MTCC 1637 assessed as inhibition zone after 24 hrs at 30 degC by well diffusion method; assay type: functional; details: MTCC 1637, 24 h
[5] = Antioxidant activity assessed as DPPH free radical scavenging activity; assay type: physicochemical
Candida albicans [6] = assay: Fungicidal activity against Candida albicans MTCC 3958 assessed as microbial killing after 24 hrs; assay type: functional; details: MTCC 3958, 24 h
Candida albicans [7] = assay: Antifungal activity against Candida albicans MTCC 7315 assessed as inhibition zone after 24 hrs at 30 degC by well diffusion method; assay type: functional; details: MTCC 7315, 24 h
Candida albicans [8] = assay: Antifungal activity against Candida albicans MTCC 854 assessed as inhibition zone after 24 hrs at 30 degC by well diffusion method; assay type: functional; details: MTCC 854, 24 h
Bacillus subtilis [9] = assay: Antibiofilm activity against Bacillus subtilis MTCC 121 after 24 hrs by crystal violet staining method; assay type: functional, organism-based; details: MTCC 121, 24 h
Staphylococcus aureus [10] = assay: Bactericidal activity against Staphylococcus aureus MLS-16 MTCC 2940 assessed as microbial killing after 24 hrs; assay type: functional; details: MLS-16 MTCC 2940, 24 h
Bacillus subtilis [11] = assay: Antibacterial activity against Bacillus subtilis MTCC 121 assessed as inhibition zone after 24 hrs at 30 degC by well diffusion method; assay type: functional; details: MTCC 121, 24 h
Pichia sporocuriosa [12] = assay: Antifungal activity against Issatchenkia hanoiensis MTCC 4755 assessed as inhibition zone after 24 hrs at 30 degC by well diffusion method; assay type: functional; details: MTCC 4755, 24 h
[13] = Cytotoxicity against human SKOV3 cells assessed as reduction in cell viability by MTT assay; assay type: functional, cell-based; details: SK-OV-3
Candida albicans [14] = assay: Fungicidal activity against Candida albicans MTCC 3017 assessed as microbial killing after 24 hrs; assay type: functional; details: MTCC 3017, 24 h
Escherichia coli [15] = assay: Antibacterial activity against Escherichia coli MTCC 739 assessed as inhibition zone after 24 hrs at 30 degC by well diffusion method; assay type: functional; details: MTCC 739, 24 h
Pseudomonas aeruginosa = assay: Antibacterial activity against Pseudomonas aeruginosa MTCC 2453 assessed as inhibition zone after 24 hrs at 30 degC by well diffusion method; assay type: functional; details: MTCC 2453, 24 h
IMR-90 [16] = assay: Selectivity index, ratio of IC50 for human IMR90 cells to IC50 for human MCF7 cells; assay type: functional
Nakaseomyces glabratus [17] = assay: Antifungal activity against Candida glabrata MTCC 3019 assessed as inhibition zone after 24 hrs at 30 degC by well diffusion method; assay type: functional; details: MTCC 3019, 24 h
Candida albicans [18] = assay: Fungicidal activity against Candida albicans MTCC 854 assessed as microbial killing after 24 hrs; assay type: functional; details: MTCC 854, 24 h
Candida albicans [19] = assay: Antifungal activity against Candida albicans MTCC 227 assessed as inhibition zone after 24 hrs at 30 degC by well diffusion method; assay type: functional; details: MTCC 227, 24 h
Staphylococcus aureus [20] = assay: Antibacterial activity against Staphylococcus aureus MTCC 96 […] after 24 hrs at 30 degC by well diffusion method; assay type: functional; details: MTCC 96, 24 h
Staphylococcus aureus [21] = assay: Antibiofilm activity against Staphylococcus aureus MLS-16 MTCC 2940 after 24 hrs by crystal violet staining method; assay type: functional, organism-based; details: MLS-16 MTCC 2940, 24 h
Staphylococcus aureus [22] = assay: Antibiofilm activity against Staphylococcus aureus MTCC 96 after 24 hrs by crystal violet staining method; assay type: functional, organism-based; details: MTCC 96, 24 h
A549 [23] = assay: Selectivity index, ratio of IC50 for human IMR90 cells to IC50 for human A549 cells; assay type: functional
[24] = Cytotoxicity against human IMR90 cells assessed as reduction in cell viability by MTT assay; assay type: cell-based; details: IMR-90
IMR-90 [25] = assay: Selectivity index, ratio of IC50 for human IMR90 cells to IC50 for human DU145 cells; assay type: functional
MCF7 = assay: Cytotoxicity against human MCF7 cells assessed as reduction in cell viability by MTT assay; assay type: functional, cell-based
Candida albicans [26] = assay: Fungicidal activity against Candida albicans MTCC 7315 assessed as microbial killing after 24 hrs; assay type: functional; details: MTCC 7315, 24 h
Nakaseomyces glabratus [27] = assay: Fungicidal activity against Candida glabrata MTCC 3019 assessed as microbial killing after 24 hrs; assay type: functional; details: MTCC 3019, 24 h
Staphylococcus aureus [28] = assay: Antibacterial activity against Staphylococcus aureus MLS-16 MTCC 2940 assessed as inhibition zone after 24 hrs at 30 degC by well diffusion method; assay type: functional; details: MLS-16 MTCC 2940, 24 h
Pichia kudriavzevii [29] = assay: Fungicidal activity against Candida krusei MTCC 3020 assessed as microbial killing after 24 hrs; assay type: functional; details: MTCC 3020, 24 h
Candida albicans [30] = assay: Fungicidal activity against Candida albicans MTCC 1637 assessed as microbial killing after 24 hrs; assay type: functional; details: MTCC 1637, 24 h
Candida albicans [31] = assay: Fungicidal activity against Candida albicans MTCC 227 assessed as microbial killing after 24 hrs; assay type: functional; details: MTCC 227, 24 h
Candida parapsilosis [32] = assay: Antifungal activity against Candida parapsilosis MTCC 1744 assessed as inhibition zone after 24 hrs at 30 degC by well diffusion method; assay type: functional; details: Lodderomyces parapsilosis, MTCC 1744, 24 h
Candida albicans [33] = assay: Antifungal activity against Candida albicans MTCC 3017 […] after 24 hrs at 30 degC by well diffusion method; assay type: functional; details: MTCC 3017, 24 h
Pichia kudriavzevii [34] = assay: Antifungal activity against Candida krusei MTCC 3020 assessed as inhibition zone after 24 hrs at 30 degC by well diffusion method; assay type: functional; details: MTCC 3020, 24 h
[Candida] aaseri [35] = Antifungal activity against Candida aaseri MTCC 1962 assessed as inhibition zone after 24 hrs at 30 degC by well diffusion method; assay type: functional; details: Yamadazyma aaseri, MTCC 1962, 24 h
Staphylococcus aureus [36] = assay: Bactericidal activity against Staphylococcus aureus MTCC 96 assessed as microbial killing after 24 hrs; assay type: functional; details: MTCC 96, 24 h
Candida parapsilosis [37] = assay: Fungicidal activity against Candida parapsilosis MTCC 1744 assessed as microbial killing after 24 hrs; assay type: functional; details: Lodderomyces parapsilosis, MTCC 1744, 24 h
Candida albicans [38] = assay: Antifungal activity against Candida albicans MTCC 3018 assessed as inhibition zone after 24 hrs at 30 degC by well diffusion method; assay type: functional; details: MTCC 3018, 24 h
Micrococcus luteus = assay: Antibacterial activity against Micrococcus luteus MTCC 2470 assessed as inhibition zone after 24 hrs at 30 degC by well diffusion method; assay type: functional; details: MTCC 2470, 24 h
[Candida] aaseri [39] = Fungicidal activity against Candida aaseri MTCC 1962 assessed as microbial killing after 24 hrs; assay type: functional; details: Yamadazyma aaseri, MTCC 1962, 24 h
Bacillus subtilis [40] = assay: Bactericidal activity against Bacillus subtilis MTCC 121 assessed as microbial killing after 24 hrs; assay type: functional; details: MTCC 121, 24 h
Candida albicans [41] = assay: Fungicidal activity against Candida albicans MTCC 4748 assessed as microbial killing after 24 hrs; assay type: functional; details: MTCC 4748, 24 h
Candida albicans [42] = assay: Antifungal activity against Candida albicans MTCC 183 assessed as inhibition zone after 24 hrs at 30 degC by well diffusion method; assay type: functional; details: MTCC 183, 24 h
Pichia sporocuriosa [43] = assay: Fungicidal activity against Issatchenkia hanoiensis MTCC 4755 assessed as microbial killing after 24 hrs; assay type: functional; details: MTCC 4755, 24 h
A549 [44] = assay: Cytotoxicity against human A549 cells assessed as reduction in cell viability by MTT assay; assay type: functional, cell-based
Raoultella planticola = assay: Antibacterial activity against Klebsiella planticola MTCC 530 assessed as inhibition zone after 24 hrs at 30 degC by well diffusion method; assay type: functional; details: MTCC 530, 24 h
SK-OV-3 = assay: Selectivity index, ratio of IC50 for human IMR90 cells to IC50 for human SKOV3 cells; assay type: functional
Candida albicans [45] = assay: Fungicidal activity against Candida albicans MTCC 3018 assessed as microbial killing after 24 hrs; assay type: functional; details: MTCC 3018, 24 h
Candida albicans [46] = assay: Antifungal activity against Candida albicans MTCC 4748 assessed as inhibition zone after 24 hrs at 30 degC by well diffusion method; assay type: functional; details: MTCC 4748, 24 h
Candida albicans [47] = assay: Fungicidal activity against Candida albicans MTCC 183 assessed as microbial killing after 24 hrs; assay type: functional; details: MTCC 183, 24 h
Escherichia coli [48] = assay: Antibiofilm activity against Escherichia coli MTCC 739 after 24 hrs by crystal violet staining method; assay type: functional, organism-based; details: MTCC 739, 24 h

CCCCCC(=O)Nc1cc2c(cc1F)c(=O)c(C(=O)OCC)cn2CC
MBC (Escherichia coli [1]): 31.2 µg/mL (≈ 82.9 µM)
MIC (Candida albicans [2]): 31.2 µg/mL (≈ 82.9 µM)
IC50 [3]: 9.8 µM
MIC (Candida albicans [4]): 31.2 µg/mL (≈ 82.9 µM)
EC50 [5]: 33.8 µg/mL (≈ 89.8 µM)
MFC (Candida albicans [6]): 62.5 µg/mL (≈ 166 µM)
MIC (Candida albicans [7]): 31.2 µg/mL (≈ 82.9 µM)
MIC (Candida albicans [8]): 31.2 µg/mL (≈ 82.9 µM)
IC50 (Bacillus subtilis [9]): 4.6 µg/mL (≈ 12.2 µM)
MBC (Staphylococcus aureus [10]): 31.2 µg/mL (≈ 82.9 µM)
MIC (Bacillus subtilis [11]): 7.8 µg/mL (≈ 20.7 µM)
MIC (Pichia sporocuriosa [12]): 31.2 µg/mL (≈ 82.9 µM)
IC50 [13]: 8.6 µM
MFC (Candida albicans [14]): 62.5 µg/mL (≈ 166 µM)
MIC (Escherichia coli [15]): 15.6 µg/mL (≈ 41.4 µM)
MIC (Pseudomonas aeruginosa): > 125 µg/mL
Ratio IC50 (IMR-90 [16]): 9
MIC (Nakaseomyces glabratus [17]): 31.2 µg/mL (≈ 82.9 µM)
MFC (Candida albicans [18]): 62.5 µg/mL (≈ 166 µM)
MIC (Candida albicans [19]): 62.5 µg/mL (≈ 166 µM)
MIC (Staphylococcus aureus [20]): 3.9 µg/mL (≈ 10.4 µM)
IC50 (Staphylococcus aureus [21]): 9.8 µg/mL (≈ 26 µM)
IC50 (Staphylococcus aureus [22]): 2.1 µg/mL (≈ 5.58 µM)
Ratio IC50 (A549 [23]): 9.9
IC50 [24]: 88.2 µM
Ratio IC50 (IMR-90 [25]): 9
IC50 (MCF7): 9.8 µM
MFC (Candida albicans [26]): 31.2 µg/mL (≈ 82.9 µM)
MFC (Nakaseomyces glabratus [27]): 31.2 µg/mL (≈ 82.9 µM)
MIC (Staphylococcus aureus [28]): 15.6 µg/mL (≈ 41.4 µM)
MFC (Pichia kudriavzevii [29]): 62.5 µg/mL (≈ 166 µM)
MFC (Candida albicans [30]): 62.5 µg/mL (≈ 166 µM)
MFC (Candida albicans [31]): 125 µg/mL (≈ 332 µM)
MIC (Candida parapsilosis [32]): 31.2 µg/mL (≈ 82.9 µM)
MIC (Candida albicans [33]): 31.2 µg/mL (≈ 82.9 µM)
MIC (Pichia kudriavzevii [34]): 62.5 µg/mL (≈ 166 µM)
MIC ([Candida] aaseri [35]): 31.2 µg/mL (≈ 82.9 µM)
MBC (Staphylococcus aureus [36]): 7.8 µg/mL (≈ 20.7 µM)
MFC (Candida parapsilosis [37]): 62.5 µg/mL (≈ 166 µM)
MIC (Candida albicans [38]): 62.5 µg/mL (≈ 166 µM)
MIC (Micrococcus luteus): > 125 µg/mL
MFC ([Candida] aaseri [39]): 62.5 µg/mL (≈ 166 µM)
MBC (Bacillus subtilis [40]): 7.8 µg/mL (≈ 20.7 µM)
MFC (Candida albicans [41]): 62.6 µg/mL (≈ 166 µM)
MIC (Candida albicans [42]): 15.6 µg/mL (≈ 41.4 µM)
MFC (Pichia sporocuriosa [43]): 62.5 µg/mL (≈ 166 µM)
IC50 (A549 [44]): 8.9 µM
MIC (Raoultella planticola): > 125 µg/mL
Ratio IC50 (SK-OV-3): 10.2
MFC (Candida albicans [45]): 62.5 µg/mL (≈ 166 µM)
MIC (Candida albicans [46]): 31.2 µg/mL (≈ 82.9 µM)
MFC (Candida albicans [47]): 31.2 µg/mL (≈ 82.9 µM)
IC50 (Escherichia coli [48]): 8.7 µg/mL (≈ 23.1 µM)

O=C(O)c1cn(C2CC2)c2cc(N3CCNCC3)c(F)cc2c1=O [CIPROFLOXACIN]
MBC (Escherichia coli [1]): 0.9 µg/mL (≈ 2.72 µM)
IC50 (Bacillus subtilis [9]): 0.7 µg/mL (≈ 2.11 µM)
MBC (Staphylococcus aureus [10]): 0.9 µg/mL (≈ 2.72 µM)
MIC (Bacillus subtilis [11]): 0.9 µg/mL (≈ 2.72 µM)
MIC (Escherichia coli [15]): 0.9 µg/mL (≈ 2.72 µM)
MIC (Pseudomonas aeruginosa): 0.9 µg/mL (≈ 2.72 µM)
MIC (Staphylococcus aureus [20]): 0.9 µg/mL (≈ 2.72 µM)
IC50 (Staphylococcus aureus [21]): 0.4 µg/mL (≈ 1.21 µM)
IC50 (Staphylococcus aureus [22]): 0.6 µg/mL (≈ 1.81 µM)
MIC (Staphylococcus aureus [28]): 0.9 µg/mL (≈ 2.72 µM)
MBC (Staphylococcus aureus [36]): 0.9 µg/mL (≈ 2.72 µM)
MIC (Micrococcus luteus): 0.9 µg/mL (≈ 2.72 µM)
MBC (Bacillus subtilis [40]): 1.9 µg/mL (≈ 5.73 µM)
MIC (Raoultella planticola): 0.9 µg/mL (≈ 2.72 µM)
IC50 (Escherichia coli [48]): 0.5 µg/mL (≈ 1.51 µM)

— ChEMBL document CHEMBL3745709, “Synthesis of novel ethyl 1-ethyl-6-fluoro-7-(fatty amido)-1,4-dihydro-4-oxoquinoline-3-carboxylate derivatives and their biological evaluation” (Bioorg Med Chem Lett, 2016)
